Data set [1] is described as follows: refractive index (Na D-line) (dimensionless). Conditions: 101.33 kPa, Liquid, Standard Abbe refractometry.
For data set [2] the following is noted: 101.33 kPa, Liquid, Vibrating tube method.
Data set [3] can be described thus: activity coefficient (dimensionless); of the first substance listed, at infinite dilution; xn = mol fraction of the nth substance listed. The settings on record: 100 kPa, Liquid, Chromatography, x1 = 0.

± gives the expanded uncertainty stated by the source.

On to `CCn1cc[n+](C)c1.COCCOCCOS(=O)(=O)[O-]` [1-ethyl-3-methylimidazolium 2-(2-methoxyethoxy) ethylsulfate], for which the refractive index in data set [1] (308.2 K) came to 1.47929 ± 0.00051; in data set [1] (313.2 K), 1.47565 ± 0.00051; in data set [1] (323.2 K) it was 1.47281 ± 0.00051; in data set [1] (333.2 K), 1.46995 ± 0.00051. For the same compound, the mass density is 1230.4 ± 1.3 kg/m3 in data set [2] (308.2 K), 1226.21 ± 1.3 kg/m3 in data set [2] (313.2 K), 1219.6 ± 1.3 kg/m3 in data set [2] (323.2 K) and 1213.66 ± 1.3 kg/m3 in data set [2] (333.2 K).

With `C=CCCCCC` [1-heptene] + CCn1cc[n+](C)c1.COCCOCCOS(=O)(=O)[O-], the activity coefficient in data set [3] (308.15 K) amounted to 71.3 ± 4.7; in data set [3] (313.15 K), 71.7 ± 3.2; in data set [3] (323.15 K) it was 68.6 ± 4.8; in data set [3] (333.15 K), 65.6 ± 6.1.

In the case of `C#CCCCCC` [1-heptyne] + CCn1cc[n+](C)c1.COCCOCCOS(=O)(=O)[O-], the activity coefficient in data set [3] (308.15 K) was found to be 9.61 ± 0.48; in data set [3] (313.15 K) it was 9.76 ± 0.56; in data set [3] (323.15 K), 10.1 ± 0.83; in data set [3] (333.15 K), 10.3 ± 1.

On to `C#CCCCC` [1-hexyne] + CCn1cc[n+](C)c1.COCCOCCOS(=O)(=O)[O-], for which the activity coefficient in data set [3] (308.15 K) turned out to be 6.05 ± 0.32; in data set [3] (313.15 K), 6.22 ± 0.38; in data set [3] (323.15 K), 6.49 ± 0.56; in data set [3] (333.15 K) it was 6.73 ± 0.65.

For `C=CCCCCCCC` [1-nonene] + CCn1cc[n+](C)c1.COCCOCCOS(=O)(=O)[O-], the activity coefficient in data set [3] (308.15 K) was found to be 168 ± 7.6; in data set [3] (313.15 K), 168 ± 9.1; in data set [3] (323.15 K), 160 ± 7.1; in data set [3] (333.15 K), 149 ± 8.9.

As to `C#CCCCCCCC` [1-nonyne] + CCn1cc[n+](C)c1.COCCOCCOS(=O)(=O)[O-], the activity coefficient in data set [3] (308.15 K) was found to be 23.9 ± 1.1; in data set [3] (313.15 K), 24.7 ± 1.1; in data set [3] (323.15 K) it was 25.7 ± 1.9; in data set [3] (333.15 K), 26.4 ± 2.4.

`C#CCCCCCC` [1-octyne] + CCn1cc[n+](C)c1.COCCOCCOS(=O)(=O)[O-]: the activity coefficient in data set [3] (308.15 K) came to 16.4 ± 0.7; in data set [3] (313.15 K), 16.7 ± 0.9; in data set [3] (323.15 K) it was 17.1 ± 1.3; in data set [3] (333.15 K), 17.4 ± 1.7.

Turning to `C=CCCC` [1-pentene] + CCn1cc[n+](C)c1.COCCOCCOS(=O)(=O)[O-], the activity coefficient in data set [3] (308.15 K) is 26.1 ± 2.4; in data set [3] (313.15 K) it was 26.5 ± 1.5; in data set [3] (323.15 K), 26.3 ± 2; in data set [3] (333.15 K), 25.4 ± 2.

As to `C#CCCC` [1-pentyne] + CCn1cc[n+](C)c1.COCCOCCOS(=O)(=O)[O-], the activity coefficient in data set [3] (308.15 K) was determined as 3.62 ± 0.19; in data set [3] (313.15 K), 3.74 ± 0.25; in data set [3] (323.15 K) it was 3.98 ± 0.4; in data set [3] (333.15 K) it was 4.13 ± 0.4.

As to `CC(C)=O` [acetone] + CCn1cc[n+](C)c1.COCCOCCOS(=O)(=O)[O-], the activity coefficient in data set [3] (308.15 K) worked out at 1.42 ± 0.07; in data set [3] (313.15 K), 1.46 ± 0.07; in data set [3] (323.15 K), 1.47 ± 0.11; in data set [3] (333.15 K) it was 1.51 ± 0.13.

Take `c1ccccc1` [benzene] + CCn1cc[n+](C)c1.COCCOCCOS(=O)(=O)[O-]: the activity coefficient worked out at 2.31 ± 0.12 in data set [3] (308.15 K), 2.33 ± 0.15 in data set [3] (313.15 K), 2.41 ± 0.18 in data set [3] (323.15 K) and 2.48 ± 0.22 in data set [3] (333.15 K).

As to `CCC(C)=O` [butanone] + CCn1cc[n+](C)c1.COCCOCCOS(=O)(=O)[O-], the activity coefficient in data set [3] (308.15 K) is 2.33 ± 0.12; in data set [3] (313.15 K), 2.34 ± 0.13; in data set [3] (323.15 K), 2.37 ± 0.18; in data set [3] (333.15 K), 2.42 ± 0.21.

Regarding `C1CCCCCC1` [cycloheptane] + CCn1cc[n+](C)c1.COCCOCCOS(=O)(=O)[O-], the activity coefficient turned out to be 60.3 ± 2.9 in data set [3] (308.15 K), 58.7 ± 3.2 in data set [3] (313.15 K), 54.1 ± 3.8 in data set [3] (323.15 K) and 50.6 ± 5 in data set [3] (333.15 K).

Turning to `C1CCCCC1` [cyclohexane] + CCn1cc[n+](C)c1.COCCOCCOS(=O)(=O)[O-], the activity coefficient in data set [3] (308.15 K) came to 45.4 ± 2.1; in data set [3] (313.15 K), 45 ± 2.9; in data set [3] (323.15 K) it was 41.5 ± 3.2; in data set [3] (333.15 K) it was 38.8 ± 4.1.

As for `C1CCCCCCC1` [cyclooctane] + CCn1cc[n+](C)c1.COCCOCCOS(=O)(=O)[O-], the activity coefficient amounted to 82.6 ± 3.7 in data set [3] (308.15 K), 79.8 ± 3.6 in data set [3] (313.15 K), 73.4 ± 4.3 in data set [3] (323.15 K) and 68.2 ± 6.2 in data set [3] (333.15 K).

For the compound `C1CCCC1` [cyclopentane] + CCn1cc[n+](C)c1.COCCOCCOS(=O)(=O)[O-], the activity coefficient came out at 27.1 ± 1.3 in data set [3] (308.15 K), 26 ± 1.5 in data set [3] (313.15 K), 24.1 ± 2 in data set [3] (323.15 K) and 22.8 ± 1.4 in data set [3] (333.15 K).

Consider `CCO` [ethanol] + CCn1cc[n+](C)c1.COCCOCCOS(=O)(=O)[O-], for which the activity coefficient in data set [3] (308.15 K) was 0.719 ± 0.032; in data set [3] (313.15 K), 0.705 ± 0.033; in data set [3] (323.15 K), 0.664 ± 0.03; in data set [3] (333.15 K), 0.666 ± 0.029.

Consider `CCc1ccccc1` [ethylbenzene] + CCn1cc[n+](C)c1.COCCOCCOS(=O)(=O)[O-], for which the activity coefficient in data set [3] (308.15 K) came to 8.04 ± 0.38; in data set [3] (313.15 K), 8.04 ± 0.47; in data set [3] (323.15 K), 8.06 ± 0.61; in data set [3] (333.15 K), 8.17 ± 0.74.

In the case of `CCCCCCC` [heptane] + CCn1cc[n+](C)c1.COCCOCCOS(=O)(=O)[O-], the activity coefficient in data set [3] (308.15 K) came out at 158 ± 7.1; in data set [3] (313.15 K), 158 ± 8; in data set [3] (323.15 K), 147 ± 6.8; in data set [3] (333.15 K), 139 ± 6.2.

For the compound `C=CCCCC` [hex-1-ene] + CCn1cc[n+](C)c1.COCCOCCOS(=O)(=O)[O-], the activity coefficient in data set [3] (308.15 K) was found to be 45.6 ± 2.4; in data set [3] (313.15 K), 44.7 ± 2.2; in data set [3] (323.15 K) it was 43.4 ± 4.1; in data set [3] (333.15 K) it was 40.3 ± 3.2.

As to `CCCCCC` [hexane] + CCn1cc[n+](C)c1.COCCOCCOS(=O)(=O)[O-], the activity coefficient in data set [3] (308.15 K) turned out to be 103 ± 4.9; in data set [3] (313.15 K), 102 ± 4.9; in data set [3] (323.15 K), 94 ± 5.2; in data set [3] (333.15 K) it was 85.7 ± 7.4.

With `CO` [methanol] + CCn1cc[n+](C)c1.COCCOCCOS(=O)(=O)[O-], the activity coefficient in data set [3] (308.15 K) is 0.39 ± 0.027; in data set [3] (313.15 K), 0.392 ± 0.027; in data set [3] (323.15 K), 0.374 ± 0.031; in data set [3] (333.15 K), 0.369 ± 0.027.

`CC1CCCCC1` [methylcyclohexane] + CCn1cc[n+](C)c1.COCCOCCOS(=O)(=O)[O-]: the activity coefficient was determined as 71.9 ± 3.2 in data set [3] (308.15 K), 70.6 ± 3.3 in data set [3] (313.15 K), 65.8 ± 4.1 in data set [3] (323.15 K) and 62.3 ± 5.7 in data set [3] (333.15 K).

`CCCCCCCCC` [nonane] + CCn1cc[n+](C)c1.COCCOCCOS(=O)(=O)[O-]: the activity coefficient was 292 ± 16 in data set [3] (308.15 K), 303 ± 14 in data set [3] (313.15 K), 288 ± 20 in data set [3] (323.15 K) and 281 ± 13 in data set [3] (333.15 K).

As to `C=CCCCCCC` [oct-1-ene] + CCn1cc[n+](C)c1.COCCOCCOS(=O)(=O)[O-], the activity coefficient turned out to be 114 ± 5.6 in data set [3] (308.15 K), 113 ± 6.1 in data set [3] (313.15 K), 107 ± 5.6 in data set [3] (323.15 K) and 101 ± 8 in data set [3] (333.15 K).

Consider `CCCCCCCC` [octane] + CCn1cc[n+](C)c1.COCCOCCOS(=O)(=O)[O-], for which the activity coefficient in data set [3] (308.15 K) was 215 ± 9.9; in data set [3] (313.15 K), 216 ± 9.9; in data set [3] (323.15 K), 212 ± 10; in data set [3] (333.15 K), 202 ± 10.

Regarding `CCCCC` [pentane] + CCn1cc[n+](C)c1.COCCOCCOS(=O)(=O)[O-], the activity coefficient in data set [3] (308.15 K) turned out to be 65.8 ± 4.5; in data set [3] (313.15 K), 65.6 ± 4; in data set [3] (323.15 K) it was 60.8 ± 2.9; in data set [3] (333.15 K), 59 ± 5.1.

For `CCCO` [propan-1-ol] + CCn1cc[n+](C)c1.COCCOCCOS(=O)(=O)[O-], the activity coefficient in data set [3] (308.15 K) was 1.01 ± 0.05; in data set [3] (313.15 K), 0.989 ± 0.056; in data set [3] (323.15 K) it was 0.942 ± 0.055; in data set [3] (333.15 K) it was 0.913 ± 0.063.

Consider `Cc1ccccc1` [toluene] + CCn1cc[n+](C)c1.COCCOCCOS(=O)(=O)[O-], for which the activity coefficient in data set [3] (308.15 K) was found to be 4.43 ± 0.21; in data set [3] (313.15 K), 4.45 ± 0.27; in data set [3] (323.15 K) it was 4.51 ± 0.33; in data set [3] (333.15 K), 4.62 ± 0.45.

A word on the refractive index: it is a measure of how strongly the sample bends light. Usually mass density stands for the mass of a sample divided by its volume.

These data come from the NIST ThermoML archive (doi:10.1016/j.jct.2013.10.017).
